Results as given in patent US4368325A, “Processes for preparing 3-cephem compounds” (Fujisawa Pharmaceutical Co., Ltd., priority 1980, dated 1983).
Converted amounts (≈) assume the structure as drawn.

Tests used:
Assay in all cases: In vitro antibacterial activity, two-fold agar-plate dilution method
Format in all cases: cell-based
[1] = system: Escherichia coli. NIHJ JC-2; conditions: NIHJJC2, HI-agar, 37° C., 20 hours, 100-fold dilution of overnight culture, read-out: minimal inhibitory concentration (MIC)
Experimental: (§1) In vitro antibacterial activity was determined by the two-fold agar-plate dilution method as described below. One loopful of the 100-fold dilution of an overnight culture of each test strain in Trypticasesoy broth was streaked on heart infusion agar (HI-agar) containing graded concentrations of the test compound and incubated at 37° C. for 20 hours. The minimal inhibitory concentration (MIC) was expressed in μg/ml.

Klebsiella pneumoniae 20 = conditions: HI-agar, 37° C., 20 hours, 100-fold dilution of overnight culture, read-out: minimal inhibitory concentration (MIC)
Experimental: as §1

Proteus mirabilis 18 = conditions: HI-agar, 37° C., 20 hours, 100-fold dilution of overnight culture, read-out: minimal inhibitory concentration (MIC)
Experimental: as §1

[2] = system: Proteus vulgaris IAM-1025; conditions: IAM1025, HI-agar, 37° C., 20 hours, 100-fold dilution of overnight culture, read-out: minimal inhibitory concentration (MIC)
Experimental: as §1

[3] = system: Pseudomonus aeruginosa NCTC-10490; conditions: HI-agar, 37° C., 20 hours, 100-fold dilution of overnight culture, read-out: minimal inhibitory concentration (MIC)
Experimental: as §1

Serratia marcescens 35 = conditions: HI-agar, 37° C., 20 hours, 100-fold dilution of overnight culture, read-out: minimal inhibitory concentration (MIC)
Experimental: as §1

[4] = system: Staphylococcus aureus 209P JC-1; conditions: HI-agar, 37° C., 20 hours, 100-fold dilution of overnight culture, read-out: minimal inhibitory concentration (MIC)
Experimental: as §1

## CO/N=C(\C(=O)NC1C(=O)N2C(C(=O)O)=CCSC12)c1csc(N)n1 (stereo not drawn) [7-[2-(2-aminothiazol-4-yl)-2-methoxyiminoacetamido]-3-cephem-4-carboxylic acid (syn isomer)]
[1]
  MIC: ≤ 0.025 µg/mL
Klebsiella pneumoniae 20
  MIC: ≤ 0.025 µg/mL
Proteus mirabilis 18
  MIC: ≤ 0.025 µg/mL
[2]
  MIC: ≤ 0.025 µg/mL
[3]
  MIC: 0.39 µg/mL (≈ 1.02 µM)
Serratia marcescens 35
  MIC: 1.56 µg/mL (≈ 4.07 µM)
[4]
  MIC: 6.25 µg/mL (≈ 16.3 µM)
